This is an account of results in patent publication US20260014219A1, “COMPOSITION FOR INHIBITING REDUCTION OF TESTOSTERONE AND/OR DIHYDROTESTOSTERONE” (priority 2019, published 2026).

In one assay the test system is testicular cells. Put plainly: Test Example 2: testosterone/dihydrotestosterone production in primary testicular cells. In kind it is cell-based, rat. The conditions noted are these: 0.5 mM, 1 h pretreatment, then LH or dibutyryl cAMP, 90 min. The procedure:
Dispersed testicular cells were prepared from the testis in mature rats. The testicular cells isolated were cultured for 18 hours in DMEM/Ham's F-12 medium (manufactured by FUJIFILM Wako Pure Chemical Corporation) for culture of testicular stromal cells, Leydig cell. Cells were pretreated with the hot water extract of Cordyceps militaris derived from Samia cynthia ricini (diluted to 1:500), or cordycepin known as one of the physiological activity substances of a vegetative wasp (0.5 mM) for 1 hour and then stimulated with a luteinizing hormone (LH: 10 and 100 ng/mL) or dibutyryl cAMP (0.1 and 0.5 mM). Ninety minutes after the stimulation, the media was collected and the content of testosterone was quantified. In order to confirm the reproducibility, the results of the reexamination performed with the same test content are shown in FIG. 13. In the reexamnination, three independent experiments were performed, and in addition to testosterone, dihydrotestosterone was also quantified.

The test system of the next assay is castrated rat. The experiment in a line: Test Example 1-1: male menopausal model rat (castrated, testosterone propionate-supplemented). In kind it is in vivo. The procedure: As the human menopause model, rats were castrated (orchiectomy). An eight-week-old male rat was subjected to orchiectomy under isoflurane anesthesia, and the castrated rat was orally administered the hot water extract of Cordyceps militaris derived from Samia cynthia ricini (RK: 20 mg/0.2 mL distilled water/rat: average body weight at the start of administration: 317 g) together with testosterone propionate (TP: 1 mg/kg, every other day administration) continuously for 12 days. Animals were sacrificed the day after the final treatment, and then the serum, testes, prostate, and seminal vesicle glands were isolated. Some animals to which 0.2 mL distilled water was administered was used as control group.
After the blood collection, the concentrations of testosterone and dihydrotestosterone in the serum were evaluated by the following measurement kit.
The results of the blood testosterone values measured by an EIA kit (manufactured by Cayman) and the results of blood dihydrotestosterone values measured by an ELISA kit (manufactured by Abnova) are shown in FIGS. 1 and 2, respectively.
After the autopsy, changes in the weight of the prostate and the seminal vesicle were evaluated. The change in the weight of the prostate is shown in FIG. 5, and change in the weight of the seminal vesicle is shown in FIG. 6.

Assay [1] deals with prostatic hypertrophy model rat. The experiment in a line: Test Example 1-2: prostatic hypertrophy model rat (long-term excessive TP). Format: in vivo, Wistar rat. The conditions noted are these: TP 3 mg/kg, 1 month. The procedure: In a rat model of menopause Test Example 1-1, since the increase in the prostatic weight by testosterone propionate (TP) was inhibited by the hot water extract of Cordyceps militaris derived from Samia cynthia ricini (RK), it was assumed that RK has inhibitory effects on prostatic hypertrophy. The effect of long-term administration of RK was, therefore, examined using a rat model of prostatic hypertrophy in which an excessive amount of TP is administered to mature rats for a long period of time.
An eight-week-old male Wistar rat was orally administered RK (10 mg/0.2 mL distilled water/rat or 20 mg/0.2 mL distilled water/rat: average body weight at the start of administration: 268 g) together with 3 mg/kg of TP continuously for 1 month. Animals were sacrificed the day after the final treatment, and then the serum, testes, prostate, and seminal vesicle glands were isolated. Some animals to which 0.2 mL distilled water was administered was used as control group.
After the blood collection, the serum levels of testosterone and dihydrotestosterone value were evaluated by the following measurement kit.
The results of the blood testosterone values measured by EIA kit (manufactured by Cayman) and the results of dihydrotestosterone values measured by Elisa kit (manufactured by Abnova) are shown in FIGS. 8 and 9, respectively.
After the necropsy, changes in prostate weight and body weight were evaluated.

`Nc1ncnc2c1ncn2[C@@H]1O[C@H](CO)C[C@H]1O` [Cordycepin, cordycepin]: in the assay on testicular cells, the “stimulatory action on testosterone/dihydrotestosterone levels” value was “No stimulatory action”.

As for `CCC(=O)O[C@H]1CC[C@H]2[C@@H]3CCC4=CC(=O)CC[C@]4(C)[C@H]3CC[C@]12C` [testosterone propionate], the body weight result in the assay on castrated rat (TP administered to castrated animals, FIG. 7) is “tended to increase”. The “weight of the prostate” value with castrated rat (TP group (1 mg/kg every other day) vs castrated, FIG. 5) is “increased”. Also, the “weight of the seminal vesicle” value in the assay with castrated rat (TP group (1 mg/kg every other day) vs castrated, FIG. 6) is on record as “increased”. Besides, in assay [1] (FIG. 8), the “serum levels of testosterone” value is listed as “increase”. In assay [1] (FIG. 9), the “serum levels of dihydrotestosterone” value was “increase”. For the same molecule, the prostatic weight result in assay [1] (FIG. 10) is given as “increased”.
